From patent US20090311723A1, “FLUORESCENCE-BASED ASSAY FOR MONOACYLGLYCEROL LIPASE COMPATIBLE WITH INHIBITOR SCREENING” (WYETH, priority 2007, published 2009)
Blank lines part the entries; values can stand above or below the molecule they belong to.

Tests used:
[1] = Stability of 7-HCA in assay buffer over time; type: physicochemical; conditions: 25° C.
Description: The stability of 7-HCA in assay buffer was monitored over time and found to be stable for at least 5 hours at 25° C.

[2] = target: T1, recombinant human MGL protein (Homo sapiens, UniProt Q99685); test: Fluorescence assay of MGL inhibition with 7-HCA as substrate; type: biochemical; conditions: for IC50: 3 ng MGL, 10 μM 7-HCA, pH 8, 25° C., 60 minutes
T1 construct: a mixture of forward and reverse primers spanning the entire coding region; made in house; host or cells: E. coli BL21
T1 sequence (Q99685 1-303): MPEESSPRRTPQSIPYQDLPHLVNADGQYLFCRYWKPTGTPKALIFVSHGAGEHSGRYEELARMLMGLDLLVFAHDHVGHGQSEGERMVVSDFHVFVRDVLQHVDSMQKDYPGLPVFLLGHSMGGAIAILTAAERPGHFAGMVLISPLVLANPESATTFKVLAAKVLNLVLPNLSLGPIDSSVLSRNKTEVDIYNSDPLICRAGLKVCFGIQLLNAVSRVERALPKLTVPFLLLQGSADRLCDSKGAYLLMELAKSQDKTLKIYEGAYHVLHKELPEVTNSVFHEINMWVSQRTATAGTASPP
Description: For measuring MGL inhibition by compounds, 3 ng protein per assay were incubated with indicated concentrations of the compound in the presence of 10 mM 7-HCA for 60 minutes. The reactions were stopped and processed as described above. Results are presented as the mean±S.E. of triplicate measurements from at least two independent experiments. The IC50 values were calculated by […]™ Prism 3.02 program using a sigmoidal dose-response equation.
Inhibition of MGL activity by URB602 was studied by treating 3 ng of MGL protein with increasing concentrations of URB602 with 7-HCA as substrate at pH 8, and 25° C., for 60 minutes in a total volume of 50 μl.
According to FIG. 7, the assay was carried out by incubating 3 ng of MGL protein with 10 μM 7-HCA and indicated concentrations of compounds in 50 mM HEPES, pH 8, 1 mM EDTA and 10% DMSO, at 25° C. for 60 minutes. The percent inhibition of MGL activity was plotted against compound concentration, and the IC50 was calculated by fitting the curve to a non-linear regression equation using […]™ Prism 3.02. Each data point represents mean±SD (n=3) from at least 2 individual experiments.

MGL [3] = target: T2, MGL (Rattus norvegicus, UniProt Q8R431); set-up: from tissue; host or cells: rat brain, periaqueductal grey, in vivo (reported from Hohmann 2005); conditions: micro-injection into periaqueductal grey, blocked by CB1 antagonist SR141716; cited from earlier work
T2 sequence (Q8R431 1-303): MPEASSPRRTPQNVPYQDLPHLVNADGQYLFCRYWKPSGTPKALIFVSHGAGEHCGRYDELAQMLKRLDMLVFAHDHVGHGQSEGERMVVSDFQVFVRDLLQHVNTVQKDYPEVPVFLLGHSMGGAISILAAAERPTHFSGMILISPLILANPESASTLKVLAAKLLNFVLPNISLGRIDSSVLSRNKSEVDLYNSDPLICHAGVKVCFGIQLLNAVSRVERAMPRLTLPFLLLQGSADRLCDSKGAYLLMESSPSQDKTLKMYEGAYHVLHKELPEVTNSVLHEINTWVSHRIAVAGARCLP

MGL [4] = target: T2, MGL; conditions: Makara 2005; later demonstrated to be false positive (impurity); read-out: IC50 of MGL previously reported; cited from earlier work
[5] = substrate: C=CCCCCC(=O)Oc1ccc2ccc(=O)oc2c1; test: Rate of hydrolysis of fluorogenic substrates by MGL (Michaelis-Menten kinetics, 7-HC fluorescence); type: biochemical, human; conditions: other: 3 ng/well MGL, 10% DMSO, pH 8.0, room temperature, read after 10 minutes, ND = not detectable activity
Description: (§1) The assay was performed in a 384-well black plate (NUNC) in a total volume of 50 μl. A typical assay consisted of 3 ng of MGL protein, 10 mM 7-HCA substrate (prepared in DMSO) in assay buffer consisting of 50 mM HEPES, pH 8, 1 mM EDTA, and […] of inhibitor solution or DMSO (10% final concentration). The components were mixed and incubated on a shaker for 10-60 min and the plate was read in a fluorescence plate reader (SPECTRAMAX™-Gemini; Ex: 355 nm; Em: 460 nm). The reaction was carried out at 25° C., and the fluorescence was monitored in the kinetic mode. The fluorescence units were converted to amount of product based on the standard curve generated with 7-HC. The data were analyzed using GRAPHPAD™ Prism Version 3.02. The observed rate constants (apparent KM) were calculated using GRAPHPAD™ Prism 3.02 based on a Michaelis-Menten (one site binding hyperbola) equation Y=BmaxX/[Kd+X].
(§2) Table 3, shown below, depicts rates of hydrolysis for MGL with representative fluorogenic substrates. Rates were measured at reactions containing 3 ng/well MGL protein, a series of concentrations of above compounds in 10% DMSO, pH 8.0, and room temperature. The 7-HC fluorescence (λex=355 nm, λem=460 nm) was read after 10-minutes. The data were analyzed and the Vmax and Km calculated using the Michaelis-Menten equation. *ND means “not detectable activity.”
(§3) The kinetic constants, KM (apparent) and Vmax were calculated by determining the MGL activity with increasing substrate concentrations. 3 ng MGL protein were incubated with increasing 7-HCA concentrations, at pH 8, 25° C., for 10 minutes in a 384-well black plate, in a total volume of 50 μl. Specific activity of MGL was plotted against the substrate concentration and the data was fit to a non-linear regression equation (FIG. 6). […] The Lineweaver-Burk plot is shown as an insert within FIG. 6.
(§4) According to FIG. 6, a 50 μl MGL reaction, containing 3 ng/well MGL protein, the indicated concentrations of 7-HCA and 10% DMSO, was performed at room temperature. The 7-HC fluorescence (λex=355 nm, λem=460 nm) was read after 10-minutes. The data were analyzed and the Vmax and KM calculated using the Michaelis-Menten equation. A Lineweaver-Burk plot of 7-HCA hydrolysis by substrate is also shown.

[6] = substrate: CCCCC/C=C\C/C=C\C/C=C\C/C=C\CCCC(=O)Oc1ccc2ccc(=O)oc2c1; test: as above; type: biochemical, human; conditions: other: 3 ng/well MGL, 10% DMSO, pH 8.0, room temperature, read after 10 minutes, ND = not detectable activity
Description: as §1, §2, §3, §4

Molecule: CCCCC/C=C\C/C=C\C/C=C\C/C=C\CCCC(=O)Oc1ccc2ccc(=O)oc2c1 [7-HCA, 7-Hydroxycoumarinyl-arachidonate]
stability in assay buffer [1]: at least 5 hours

Molecule: Cc1ccc(Nc2nc3ccc(C)cc3c(=O)o2)cc1 [URB754]
inhibition of MGL activity (negative control) ([2]; concentrations up to 100 μM): failing to inhibit MGL activity
IC50 (MGL [4]): 0.05 µM

B1: recombinant human MGL protein (Homo sapiens) (protein)
chain: T1 sequence (Q99685 1-303)
notes: a mixture of forward and reverse primers spanning the entire coding region; made in house; host or cells: E. coli BL21
Km [5]: 9.3 µM
Vmax [5]: 1.3 µmol/min/mg
Km [6]: 9.8 µM
Vmax [6]: 1.7 µmol/min/mg

Second part, led by results:

IC50 [2]: 0.155 µM
Molecule: CCCCC/C=C\C/C=C\C/C=C\C/C=C\CCCCN1C(=O)C=CC1=O [N-Arachidonyl Maleimide (NAM), N-Arachidonyl Maleimide]

IC50 [2]: 3.6 µM
IC50 ([2]; listed as URB-602): 3.1 µM
Molecule: O=C(Nc1cccc(-c2ccccc2)c1)OC1CCCCC1 [URB602]
effect on stress-induced antinociception (MGL [3]): enhanced stress-induced antinociception
